Data as given in ChEMBL document CHEMBL1131407, “Synthesis and metabotropic glutamate receptor activity of a 2-aminobicyclo[3.2.0]heptane-2,5-dicarboxylic acid, a molecule possessing an extended glutamate conformation” (Bioorg Med Chem Lett, 1998).

Key:
[1] = biological target: Metabotropic glutamate receptor 1 (Homo sapiens) (UniProt Q13255); test: Compound (300 uM) was evaluated for percentage agonist activity against human mGluR1a expressed in chinese hamster ovary cells; type: functional, cell-based
[2] = biological target: Metabotropic glutamate receptor 6 (Homo sapiens) (UniProt O15303); test: Compound (300 uM) was evaluated for percentage agonist activity against human mGluR6 expressed in chinese hamster ovary cells; type: functional, cell-based
Metabotropic glutamate receptor 6 (Homo sapiens), sequence (O15303 whole entry): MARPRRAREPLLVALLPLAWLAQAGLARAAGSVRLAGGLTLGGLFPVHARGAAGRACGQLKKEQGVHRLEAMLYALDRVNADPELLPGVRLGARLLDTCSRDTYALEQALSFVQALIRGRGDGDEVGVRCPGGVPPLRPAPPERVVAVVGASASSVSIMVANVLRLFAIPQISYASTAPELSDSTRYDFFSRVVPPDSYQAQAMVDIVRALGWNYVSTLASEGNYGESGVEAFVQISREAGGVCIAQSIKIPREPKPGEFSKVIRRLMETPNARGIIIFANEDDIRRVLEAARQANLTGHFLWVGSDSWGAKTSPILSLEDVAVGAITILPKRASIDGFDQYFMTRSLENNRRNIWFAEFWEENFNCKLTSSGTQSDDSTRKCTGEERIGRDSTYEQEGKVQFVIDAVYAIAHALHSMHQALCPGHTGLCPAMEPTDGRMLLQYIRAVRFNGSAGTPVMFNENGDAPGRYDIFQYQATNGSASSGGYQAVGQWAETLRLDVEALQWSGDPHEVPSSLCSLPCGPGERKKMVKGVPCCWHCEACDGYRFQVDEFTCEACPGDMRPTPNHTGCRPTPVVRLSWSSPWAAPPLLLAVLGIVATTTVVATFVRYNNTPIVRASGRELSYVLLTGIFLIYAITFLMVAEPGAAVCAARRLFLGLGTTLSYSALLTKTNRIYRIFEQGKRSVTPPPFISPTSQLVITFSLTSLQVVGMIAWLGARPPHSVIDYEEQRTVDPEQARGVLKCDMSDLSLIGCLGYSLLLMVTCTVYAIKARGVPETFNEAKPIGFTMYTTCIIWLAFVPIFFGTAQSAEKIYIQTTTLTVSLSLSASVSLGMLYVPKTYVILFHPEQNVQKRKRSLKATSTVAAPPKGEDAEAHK

Metabotropic glutamate receptor 1 (Homo sapiens), sequence (Q13255 19-1194 limits assumed): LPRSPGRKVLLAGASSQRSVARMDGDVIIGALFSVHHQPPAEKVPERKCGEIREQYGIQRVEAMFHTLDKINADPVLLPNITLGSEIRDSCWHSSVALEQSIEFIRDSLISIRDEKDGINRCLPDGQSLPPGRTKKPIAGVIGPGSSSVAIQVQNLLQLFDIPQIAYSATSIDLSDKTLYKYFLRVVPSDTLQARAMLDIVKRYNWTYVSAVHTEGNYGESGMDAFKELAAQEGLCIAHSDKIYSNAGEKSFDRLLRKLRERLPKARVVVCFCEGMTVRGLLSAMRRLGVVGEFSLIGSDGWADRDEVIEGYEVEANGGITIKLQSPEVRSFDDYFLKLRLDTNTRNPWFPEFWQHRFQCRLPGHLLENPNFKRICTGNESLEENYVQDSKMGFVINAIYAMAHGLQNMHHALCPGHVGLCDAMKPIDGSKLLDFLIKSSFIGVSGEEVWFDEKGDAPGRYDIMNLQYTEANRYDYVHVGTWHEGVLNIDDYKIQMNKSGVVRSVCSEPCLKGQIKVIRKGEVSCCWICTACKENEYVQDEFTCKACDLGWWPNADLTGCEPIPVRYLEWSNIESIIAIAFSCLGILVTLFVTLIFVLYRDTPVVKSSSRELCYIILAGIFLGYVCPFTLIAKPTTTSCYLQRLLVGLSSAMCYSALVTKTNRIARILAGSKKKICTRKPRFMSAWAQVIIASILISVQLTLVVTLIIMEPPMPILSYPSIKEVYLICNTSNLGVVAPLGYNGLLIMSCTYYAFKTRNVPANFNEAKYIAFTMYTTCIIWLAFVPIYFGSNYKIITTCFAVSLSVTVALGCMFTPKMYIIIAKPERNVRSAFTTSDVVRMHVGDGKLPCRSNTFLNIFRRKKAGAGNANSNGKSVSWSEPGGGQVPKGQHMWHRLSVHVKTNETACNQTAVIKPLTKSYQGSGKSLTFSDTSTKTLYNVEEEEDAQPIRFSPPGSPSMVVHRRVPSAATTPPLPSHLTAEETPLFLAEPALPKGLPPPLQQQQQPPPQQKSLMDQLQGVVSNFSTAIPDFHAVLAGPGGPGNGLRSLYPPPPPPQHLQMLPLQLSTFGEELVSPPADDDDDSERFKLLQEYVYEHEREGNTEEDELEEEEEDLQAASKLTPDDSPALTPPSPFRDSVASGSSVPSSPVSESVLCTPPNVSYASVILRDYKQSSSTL

In the case of `N[C@@]1(C(=O)O)CCC2C[C@H](C(=O)O)C21` (some centres not stated), the Max agonist activity [1] is reported as 16% and the Max agonist activity [2] is reported as 20%.
